Molecules are shown by their SMILES. Active and inactive are the calls of the source. The rule behind the calls is not given here.

The data set deals with CCRIS mutagenicity, Ames/micronucleus/aberration tests. Kind of data set: CCRIS mutagenicity studies.
Setting [1] is: Test System: AMES SALMONELLA TYPHIMURIUM, Strain/Indicator: TA98, Metabolic Activation: NONE, Method: PREINCUBATION
[2] abbreviates: Test System: AMES SALMONELLA TYPHIMURIUM, Strain/Indicator: TA100, Metabolic Activation: NONE, Method: PREINCUBATION
The mark [3] stands for this setting: Test System: AMES SALMONELLA TYPHIMURIUM, Strain/Indicator: TA1535, Metabolic Activation: NONE, Method: PREINCUBATION

For `CCOP(=O)(OCC)OCC`, the mutagenic call is “inactive; negative” (Test System: AMES SALMONELLA TYPHIMURIUM, Strain/Indicator: TA98, Metabolic Activation: HAMSTER, LIVER, S-9, AROCLOR 1254 (10%), Method: PREINCUBATION); “inactive; negative” under setting [1]; “inactive; negative” (Test System: AMES SALMONELLA TYPHIMURIUM, Strain/Indicator: TA98, Metabolic Activation: RAT, LIVER, S-9, AROCLOR 1254 (10%), Method: PREINCUBATION); “inactive; negative” (Test System: AMES SALMONELLA TYPHIMURIUM, Strain/Indicator: TA100, Metabolic Activation: HAMSTER, LIVER, S-9, AROCLOR 1254 (10%), Method: PREINCUBATION); “inactive; negative” under setting [2]; “inactive; negative” (Test System: AMES SALMONELLA TYPHIMURIUM, Strain/Indicator: TA100, Metabolic Activation: RAT, LIVER, S-9, AROCLOR 1254 (10%), Method: PREINCUBATION). The mutagenic call is “inactive; negative” (Test System: AMES SALMONELLA TYPHIMURIUM, Strain/Indicator: TA102, Metabolic Activation: NONE, Method: STANDARD PLATE); “inactive; negative” (Test System: AMES SALMONELLA TYPHIMURIUM, Strain/Indicator: TA1535, Metabolic Activation: HAMSTER, LIVER, S-9, AROCLOR 1254 (10%), Method: PREINCUBATION); “inactive; negative” under setting [3]; “inactive; negative” (Test System: AMES SALMONELLA TYPHIMURIUM, Strain/Indicator: TA1535, Metabolic Activation: RAT, LIVER, S-9, AROCLOR 1254 (10%), Method: PREINCUBATION); “inactive; negative” (Test System: AMES SALMONELLA TYPHIMURIUM, Strain/Indicator: TA1537, Metabolic Activation: HAMSTER, LIVER, S-9, AROCLOR 1254 (10%), Method: PREINCUBATION); “inactive; negative” (Test System: AMES SALMONELLA TYPHIMURIUM, Strain/Indicator: TA1537, Metabolic Activation: NONE, Method: PREINCUBATION). In addition, the mutagenic call is “inactive; negative” (Test System: AMES SALMONELLA TYPHIMURIUM, Strain/Indicator: TA1537, Metabolic Activation: RAT, LIVER, S-9, AROCLOR 1254 (10%), Method: PREINCUBATION); “inactive; negative” (Test System: AMES SALMONELLA TYPHIMURIUM, Strain/Indicator: TA2638, Metabolic Activation: NONE, Method: STANDARD PLATE); “inactive; negative” (Test System: E. COLI, Strain/Indicator: WP2 (PKM101), Metabolic Activation: NONE, Method: STANDARD PLATE); “inactive; negative” (Test System: E. COLI, Strain/Indicator: WP2 UVRA (PKM101), Metabolic Activation: NONE, Method: STANDARD PLATE).

For the compound `O=C1C(Cl)=C(Cl)C(=O)C1(Cl)Cl`, for the setting “Test System: AMES SALMONELLA TYPHIMURIUM, Strain/Indicator: TA100, Metabolic Activation: NONE, Method: STANDARD PLATE”, the mutagenic call is “inactive; negative”.

Turning to `O=[N+]([O-])c1ccc2c(c1)Cc1cccc([N+](=O)[O-])c1-2`, the mutagenic call by setting is: (Test System: AMES SALMONELLA TYPHIMURIUM, Strain/Indicator: TA98, Metabolic Activation: HAMSTER, LIVER, S-9, AROCLOR 1254 (30%), Method: PREINCUBATION) “active; positive”; under setting [1], “active; positive”; (Test System: AMES SALMONELLA TYPHIMURIUM, Strain/Indicator: TA98, Metabolic Activation: RAT, LIVER, S-9, AROCLOR 1254 (30%), Method: PREINCUBATION) “active; positive”; (Test System: AMES SALMONELLA TYPHIMURIUM, Strain/Indicator: TA100, Metabolic Activation: HAMSTER, LIVER, S-9, AROCLOR 1254 (30%), Method: PREINCUBATION) “active; positive”; under setting [2], “active; positive”; (Test System: AMES SALMONELLA TYPHIMURIUM, Strain/Indicator: TA100, Metabolic Activation: RAT, LIVER, S-9, AROCLOR 1254 (30%), Method: PREINCUBATION) “active; positive”.

For `CC(=O)Nc1cccc(C)c1`, the mutagenic call was “inactive; negative” (Test System: AMES SALMONELLA TYPHIMURIUM, Strain/Indicator: TA97, Metabolic Activation: HAMSTER, LIVER, S-9, AROCLOR 1254 (10 OR 30%), Method: PREINCUBATION); “inactive; negative” (Test System: AMES SALMONELLA TYPHIMURIUM, Strain/Indicator: TA97, Metabolic Activation: NONE, Method: PREINCUBATION); “inactive; negative” (Test System: AMES SALMONELLA TYPHIMURIUM, Strain/Indicator: TA97, Metabolic Activation: RAT, LIVER, S-9, AROCLOR 1254 (10 OR 30%), Method: PREINCUBATION); “inactive; negative” (Test System: AMES SALMONELLA TYPHIMURIUM, Strain/Indicator: TA98, Metabolic Activation: HAMSTER, LIVER, S-9, AROCLOR 1254 (10 OR 30%), Method: PREINCUBATION); “inactive; negative” under setting [1]; “inactive; negative” (Test System: AMES SALMONELLA TYPHIMURIUM, Strain/Indicator: TA98, Metabolic Activation: RAT, LIVER, S-9, AROCLOR 1254 (10 OR 30%), Method: PREINCUBATION). Moreover, the mutagenic call is, setting by setting: (Test System: AMES SALMONELLA TYPHIMURIUM, Strain/Indicator: TA100, Metabolic Activation: HAMSTER, LIVER, S-9, AROCLOR 1254 (10 OR 30%), Method: PREINCUBATION) “inactive; negative”; under setting [2], “inactive; negative”; (Test System: AMES SALMONELLA TYPHIMURIUM, Strain/Indicator: TA100, Metabolic Activation: RAT, LIVER, S-9, AROCLOR 1254 (10 OR 30%), Method: PREINCUBATION) “inactive; negative”; (Test System: AMES SALMONELLA TYPHIMURIUM, Strain/Indicator: TA1535, Metabolic Activation: HAMSTER, LIVER, S-9, AROCLOR 1254 (10 OR 30%), Method: PREINCUBATION) “inactive; negative”; under setting [3], “inactive; negative”; (Test System: AMES SALMONELLA TYPHIMURIUM, Strain/Indicator: TA1535, Metabolic Activation: RAT, LIVER, S-9, AROCLOR 1254 (10 OR 30%), Method: PREINCUBATION) “inactive; negative”.

Values taken from PubChem BioAssay AID1259407 (Chemical Carcinogenesis Research Information System (CCRIS), 2018).
